Measured values published in US10899709B2, “Novel-alkynyl-substituted 3-phenylpyrrolidine-2,4-diones and use thereof as herbicides” (BAYER CROPSCIENCE AKTIENGESELLSCHAFT, priority 2015, dated 2021).

Key:
Format in all cases: in vivo
Setaria viridis [1] = experiment: Pre-emergence herbicidal effect; settings: for Pre-emergence effectiveness SETVI: visual score after 3 weeks
Excerpt: (§1) Seeds of monocotyledonous and dicotyledonous weed plants and crop plants are laid out in wood-fibre pots in sandy loam and covered with soil. The compounds according to the invention formulated in the form of wettable powders (WP) or as emulsion concentrates (EC) are then applied as aqueous suspension or emulsion at a water application rate of 600 to 800 l/ha (converted) with the addition of 0.2% wetting agent to the surface of the covering soil. After the treatment, the pots are placed in a greenhouse and kept under good growth conditions for the trial plants. The damage to the test plants is scored visually after a test period of 3 weeks by comparison with untreated controls (herbicidal activity in percent (%): 100% activity=the plants have died, 0% activity=like control plants).

Alopecurus myosuroides [2] = experiment: Pre-emergence herbicidal effect; settings: visual score after 3 weeks
Excerpt: as §1

Cyperus esculentus = experiment: Pre-emergence herbicidal effect; settings: for Pre-emergence effectiveness CYPES: 320 g/ha, visual score after 3 weeks
Excerpt: as §1

Lolium multiflorum [3] = experiment: Pre-emergence herbicidal effect; settings: visual score after 3 weeks
Excerpt: as §1

Echinochloa crus-galli [4] = experiment: Pre-emergence herbicidal effect; settings: visual score after 3 weeks
Excerpt: as §1

Setaria viridis [5] = experiment: Post-emergence herbicidal effect; settings: visual assessment after about 3 weeks
Method: (§2) Seeds of monocotyledonous and dicotyledonous weed and crop plants are laid out in sandy loam in wood-fibre pots, covered with soil and cultivated in a greenhouse under good growth conditions. 2 to 3 weeks after sowing, the test plants are treated at the one-leaf stage. The compounds according to the invention, formulated in the form of wettable powders (WP) or as emulsion concentrates (EC), are then sprayed as aqueous suspension or emulsion at a water application rate of 600 to 800 l/ha (converted) with the addition of 0.2% of wetting agent onto the green parts of the plants. After the test plants have been left to stand in the greenhouse under optimal growth conditions for about 3 weeks, the action of the preparations is assessed visually in comparison to untreated controls (herbicidal action in percent (%): 100% activity=the plants have died, 0% activity=like control plants).

Echinochloa crus-galli [6] = experiment: Post-emergence herbicidal effect; settings: visual assessment after about 3 weeks
Method: as §2

Avena fatua [7] = experiment: Pre-emergence herbicidal effect; settings: for Pre-emergence effectiveness AVEFA: visual score after 3 weeks
Excerpt: as §1

Avena fatua [8] = experiment: Post-emergence herbicidal effect; settings: visual assessment after about 3 weeks
Method: as §2

Alopecurus myosuroides [9] = experiment: Post-emergence herbicidal effect; settings: visual assessment after about 3 weeks
Method: as §2

Lolium multiflorum [10] = experiment: Post-emergence herbicidal effect; settings: visual assessment after about 3 weeks
Method: as §2

| Structure (SMILES) | Pre-emergence effectiveness SETVI (Setaria viridis [1]; 80 g/ha) [%] | Pre-emergence effectiveness SETVI (Setaria viridis [1]; 320 g/ha) [%] | Pre-emergence effectiveness ALOMY (Alopecurus myosuroides [2]; 80 g/ha) [%] | Pre-emergence effectiveness ALOMY (Alopecurus myosuroides [2]; 320 g/ha) [%] | Pre-emergence effectiveness CYPES (Cyperus esculentus) [%] | Pre-emergence effectiveness LOLMU (Lolium multiflorum [3]; 320 g/ha) [%] | Pre-emergence effectiveness ECHCG (Echinochloa crus-galli [4]; 80 g/ha) [%] | Pre-emergence effectiveness ECHCG (Echinochloa crus-galli [4]; 320 g/ha) [%] | Post-emergence effectiveness SETVI (Setaria viridis [5]; 80 g/ha) [%] | Post-emergence effectiveness ECHCG (Echinochloa crus-galli [6]; 80 g/ha) [%] | Pre-emergence effectiveness AVEFA (Avena fatua [7]; 80 g/ha) [%] | Pre-emergence effectiveness AVEFA (Avena fatua [7]; 320 g/ha) [%] | Pre-emergence effectiveness LOLMU (Lolium multiflorum [3]; 80 g/ha) [%] | Post-emergence effectiveness SETVI (Setaria viridis [5]; 20 g/ha) [%] | Post-emergence effectiveness AVEFA (Avena fatua [8]; 80 g/ha) [%] | Post-emergence effectiveness ALOMY (Alopecurus myosuroides [9]; 20 g/ha) [%] | Post-emergence effectiveness ALOMY (Alopecurus myosuroides [9]; 80 g/ha) [%] | Post-emergence effectiveness LOLMU (Lolium multiflorum [10]; 20 g/ha) [%] | Post-emergence effectiveness LOLMU (Lolium multiflorum [10]; 80 g/ha) [%] | Post-emergence effectiveness ECHCG (Echinochloa crus-galli [6]; 20 g/ha) [%] | other results |
| --- | --- | --- | --- | --- | --- | --- | --- | --- | --- | --- | --- | --- | --- | --- | --- | --- | --- | --- | --- | --- | --- |
| CCOC(=O)OC1=C(c2c(C)cc(C#CC3CC3)cc2C)C(=O)NC12CCC(COC)C2 (centres unmarked) [Example Ia-2] | 90 | 100 | 80 | 100 | 100 | 80 | 100 | 100 | 80 | 80 |  |  |  |  |  |  |  |  |  |  |  |
| CC#Cc1cc(C)c(C2=C(OC(=O)C(C)C)C3(CCC(COC)C3)NC2=O)c(CC)c1 (centres unmarked) [Example Ia-8] | 80 | 100 | 100 | 100 |  | 100 | 100 | 100 | 100 | 100 | 90 | 90 | 100 | 100 | 100 | 100 | 100 | 100 | 100 | 100 |  |
| CCc1cc(C#CC2CC2)cc(C)c1C1=C(OC(=O)C(C)C)C2(CCC(COC)C2)NC1=O (centres unmarked) [Example Ia-12] | 90 | 100 | 100 | 100 |  | 100 | 100 | 100 | 100 | 100 |  | 90 | 100 | 100 | 100 | 90 | 90 | 90 | 100 | 100 | Post-emergence effectiveness AVEFA (Avena fatua [8]; 20 g/ha): 100% |
| CC#Cc1cc(C)c(C2=C(OC(=O)OCC)C3(CCC(OCCOC)CC3)NC2=O)c(CC)c1 (centres unmarked) [Ia-14] | 100 | 100 | 80 | 100 | 100 | 100 | 100 | 100 |  |  | 80 | 80 | 90 |  |  |  |  |  |  |  |  |
| CC#Cc1cc(C)c(C2=C(OC(=O)OCC)C3(CCC(COC)CC3)NC2=O)c(CC)c1 (centres unmarked) [Ia-17] |  |  |  |  |  |  |  |  |  |  |  |  |  |  |  |  |  |  |  |  | Comparison data for pre-emergence effectiveness SETVI (Setaria viridis [1]; 20 g a.i./ha): 100%; Comparison data for pre-emergence effectiveness AVEFA (Avena fatua [7]; 20 g a.i./ha): 60%; Comparison data for pre-emergence effectiveness CYPES (Cyperus esculentus; 20 g a.i./ha): 100% |
